# Experimental data: patent US20120071397A1, “Methods for Hematopoietic Stem Cell Transplantation” (University of Southern California, priority 2010, published 2012)
# Tested on: C57Bl/6 mice transplanted after myeloablation by total body irradiation (TBI)
# Assay: Survival of mice after syngeneic bone marrow transplant following myeloablation by total body irradiation, with suspected norovirus infection
# Type: in vivo
# Details: 500 μg/kg/day subcutaneous, FIG. 1
# Method: FIG. 1. C57Bl/6 mice (n=40/group) were transplanted after myeloablation by total body irradiation (TBI) from Saline or A(1-7) treated donors and received saline or A(1-7) after transplant.
# […] mice underwent […] in split doses separated by 3 hours. Two hours after TBI, the mice received 2×10^6 syngeneic bone marrow cells by intravenous injection. For treatment, either donors (14 days prior to donation), recipients (starting on the day of transplant) or both received 500 μg/kg/day A(1-7) by subcutaneous injection During bone marrow transplant (BMT), recipients are immune suppressed due to myeloablation. Mice are normally kept in pathogen-free environments during BMT to reduce mortality due to infection.
substance,measurement,setting,value
Asp-Arg-Val-Tyr-Ile-His-Pro (DRVYIHP) [A(1-7)],survival,both donor and recipient treated,all surviving
same,survival,"treatment of either donor (14 days prior to donation), recipient (starting on day of transplant) or both",improved survival
